Test results: publication PMC2119205 (The Journal of Experimental Medicine, 1992)
One block for each compound: values may come before it.

What was measured:
[1] = tested on: antigen presentation by LNC to T cell hybridoma 1C5.1; assay: Chloroquine treatment of irradiated LNC before T hybridoma activation; type: cell-based; details: C3H mice primed with 14 nmol/mouse HEL in CFA, 10^6 LNC/well; chloroquine 1-100 µM, hybridoma 1C5.1 (Fig. 3)
I-Ak molecules = details: cited from earlier work
I-Ek molecules = details: cited from earlier work
I-Ed molecules = details: cited from earlier work
T cell response = details: cited from earlier work
[2] = tested on: T cell hybridoma 3A9 (I-Ak/HEL 46-61); type: in vivo, C3H and DBA/2 mice; details: C3H (H-2k) mice, 7 nmol/mouse HEL-CFA, LNC day 8, no antigen added (Fig. 1)
[3] = tested on: T cell hybridoma 1C5.1 (I-Ak/HEL 46-61); type: cell-based, mouse; details: read-out: Responsiveness: amount of HEL or peptide inducing 50% of the maximal response; hybridoma 1C5.1, restriction Ak; LK-35.2 cells as APC; mean of three to four experiments
[4] = tested on: T cell hybridoma 2D4.1 (I-Ak/HEL 112-129); type: cell-based, mouse; details: read-out: Responsiveness: amount of HEL or peptide inducing 50% of the maximal response; hybridoma 2D4.1, restriction Ak; LK-35.2 cells as APC; mean of three to four experiments
[5] = tested on: T cell hybridoma 3A9 (I-Ak/HEL 46-61); type: cell-based, mouse; details: read-out: Responsiveness: amount of HEL or peptide inducing 50% of the maximal response; hybridoma 3A9, restriction Ak; LK-35.2 cells as APC; mean of three to four experiments
[6] = tested on: T cell hybridoma 2G7.1 (I-Ek/HEL 1-18); type: cell-based, mouse; details: read-out: Responsiveness: amount of HEL or peptide inducing 50% of the maximal response; hybridoma 2G7.1, restriction Ek; LK-35.2 cells as APC; mean of three to four experiments
[7] = tested on: T cell hybridoma 1H11.3 (I-Ed/HEL 108-116); type: in vivo, C3H and DBA/2 mice; details: DBA/2 (H-2d) mice, 7 nmol/mouse HEL-CFA, LNC day 8, no antigen added (Fig. 1)
[8] = tested on: T cell hybridoma 1C5.1 (I-Ak/HEL 46-61); type: in vivo, C3H mice; details: LNC from HEL-primed mice (not shown)
[9] = tested on: T cell hybridoma 1H11.3 (I-Ed/HEL 108-116); type: cell-based, mouse; details: read-out: Responsiveness: amount of HEL or peptide inducing 50% of the maximal response; hybridoma 1H11.3, restriction Ed; LK-35.2 cells as APC; mean of three to four experiments

Compound: CCN(CC)CCCC(C)Nc1ccnc2cc(Cl)ccc12 (centres unmarked) [chloroquine]
Effect on antigen presentation by LNC from HEL-primed mice [1]: failsto interfere

Compound: CNDGRTPGSRNLCN [HEL 64-77]
Binding to I-Ak (I-Ak molecules): does not bind

Compound: DRGDQSTDYGIFQINSR [ML 46-62]
Binding to I-Ek molecules (I-Ek molecules): failsto bind
Binding to I-Ed molecules (I-Ed molecules): failsto bind
Binding to I-Ak molecules (I-Ak molecules): binds strongly
Immunogenicity in mice (T cell response): nonimmunogenic

EC50 [3]: 300 nM
EC50 [4]: 300 nM
EC50 [5]: 20 nM
EC50 [6]: 300 nM
EC50 [9]: 500 nM
Compound: hen egg white lysozyme [HEL]
IL-2 production by 3A9 induced by LNC from primed mice [2]: induce
IL-2 production by 1H11.3 induced by LNC from primed mice [7]: induce
Time after immunization of maximal antigen-presenting activity in LNC [8]: 8 days
